Test results reported in paper PMC12155096 (International Journal of Molecular Sciences, 2025).
Structures can show the parent of a compound that is named as a salt. Where two headings read alike, the source gives them in different places.

How the values were obtained:
[1] = biological target: T1, human CYP2C9 (Homo sapiens, UniProt P11712); assay: biochemical
[2] = biological target: T2, human CYP2C19 (Homo sapiens, UniProt P33261); assay: biochemical
[3] = biological target: T3, human CYP1A2 (Homo sapiens, UniProt P05177); assay: biochemical
T3 sequence (P05177 1-516): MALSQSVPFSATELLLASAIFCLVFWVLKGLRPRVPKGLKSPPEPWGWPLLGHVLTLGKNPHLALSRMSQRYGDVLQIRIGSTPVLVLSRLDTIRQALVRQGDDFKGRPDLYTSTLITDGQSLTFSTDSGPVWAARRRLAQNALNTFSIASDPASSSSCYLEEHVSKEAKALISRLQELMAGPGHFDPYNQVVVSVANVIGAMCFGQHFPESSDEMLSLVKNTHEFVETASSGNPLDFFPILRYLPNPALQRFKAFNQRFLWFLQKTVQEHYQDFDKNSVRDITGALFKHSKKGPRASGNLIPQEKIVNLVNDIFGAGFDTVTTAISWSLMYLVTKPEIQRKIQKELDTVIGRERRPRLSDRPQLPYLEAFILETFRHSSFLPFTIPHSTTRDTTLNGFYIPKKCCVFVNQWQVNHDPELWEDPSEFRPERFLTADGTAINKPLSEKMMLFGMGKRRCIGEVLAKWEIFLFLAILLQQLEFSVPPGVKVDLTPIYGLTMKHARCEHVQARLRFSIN

[4] = biological target: T2, human CYP2C19
[5] = biological target: CYP3A4 (Homo sapiens, UniProt P08684)
[6] = biological target: human CYP2D6 (Homo sapiens, UniProt P10635)
[7] = biological target: T3, human CYP1A2
[8] = biological target: T1, human CYP2C9; settings: human
[9] = CYP1A2 AC50 (half-maximal activity concentration)
[10] = CYP2C9 AC50 (half-maximal activity concentration)
[11] = CYP2C19 AC50 (half-maximal activity concentration)
[12] = CYP2C9 IC50 (half-maximal inhibitory concentration)
[13] = CYP1A2 IC50 (half-maximal inhibitory concentration)
[14] = CYP2C19 IC50 (half-maximal inhibitory concentration)

Chain of human CYP2D6 (P10635 whole entry): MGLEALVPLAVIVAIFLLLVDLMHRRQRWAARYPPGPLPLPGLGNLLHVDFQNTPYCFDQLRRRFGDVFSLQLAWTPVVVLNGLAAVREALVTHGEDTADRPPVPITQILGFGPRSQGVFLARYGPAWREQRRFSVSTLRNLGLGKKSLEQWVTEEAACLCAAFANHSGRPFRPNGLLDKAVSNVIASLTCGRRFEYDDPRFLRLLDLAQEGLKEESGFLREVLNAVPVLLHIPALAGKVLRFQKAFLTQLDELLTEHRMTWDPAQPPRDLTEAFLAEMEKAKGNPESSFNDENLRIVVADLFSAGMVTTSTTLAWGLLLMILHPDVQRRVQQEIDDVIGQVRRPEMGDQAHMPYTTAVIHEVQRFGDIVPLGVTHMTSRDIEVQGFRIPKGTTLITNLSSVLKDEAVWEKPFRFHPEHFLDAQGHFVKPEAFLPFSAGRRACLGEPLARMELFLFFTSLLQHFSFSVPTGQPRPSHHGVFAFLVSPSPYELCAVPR
T1 sequence (P11712 whole entry): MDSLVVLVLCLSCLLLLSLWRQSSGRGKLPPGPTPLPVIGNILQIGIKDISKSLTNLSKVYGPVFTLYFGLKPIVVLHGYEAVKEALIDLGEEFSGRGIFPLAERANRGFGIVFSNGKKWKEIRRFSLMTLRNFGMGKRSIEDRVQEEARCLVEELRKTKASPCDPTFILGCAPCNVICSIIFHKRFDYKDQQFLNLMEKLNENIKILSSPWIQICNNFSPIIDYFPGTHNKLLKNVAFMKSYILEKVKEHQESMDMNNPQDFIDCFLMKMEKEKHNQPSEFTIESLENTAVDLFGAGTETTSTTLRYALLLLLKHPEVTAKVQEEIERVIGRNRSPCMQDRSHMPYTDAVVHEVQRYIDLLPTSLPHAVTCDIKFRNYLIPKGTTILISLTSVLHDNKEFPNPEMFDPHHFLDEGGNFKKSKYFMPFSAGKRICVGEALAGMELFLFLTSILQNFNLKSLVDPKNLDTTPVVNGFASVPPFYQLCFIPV
Chain of CYP3A4 (P08684 whole entry): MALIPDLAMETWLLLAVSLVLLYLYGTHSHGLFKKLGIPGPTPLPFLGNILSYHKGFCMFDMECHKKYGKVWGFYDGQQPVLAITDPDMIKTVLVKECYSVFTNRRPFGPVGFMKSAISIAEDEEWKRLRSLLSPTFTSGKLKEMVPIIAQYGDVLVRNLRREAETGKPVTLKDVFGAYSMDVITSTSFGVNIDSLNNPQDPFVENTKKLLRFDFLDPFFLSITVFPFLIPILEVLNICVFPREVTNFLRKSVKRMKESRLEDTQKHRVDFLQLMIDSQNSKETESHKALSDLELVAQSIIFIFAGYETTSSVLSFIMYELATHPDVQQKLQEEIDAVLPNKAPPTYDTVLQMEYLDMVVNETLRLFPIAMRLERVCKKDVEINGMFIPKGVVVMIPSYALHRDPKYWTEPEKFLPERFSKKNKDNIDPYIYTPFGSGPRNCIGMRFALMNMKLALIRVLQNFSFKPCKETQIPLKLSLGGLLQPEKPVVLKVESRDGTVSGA
T2 sequence (P33261 whole entry): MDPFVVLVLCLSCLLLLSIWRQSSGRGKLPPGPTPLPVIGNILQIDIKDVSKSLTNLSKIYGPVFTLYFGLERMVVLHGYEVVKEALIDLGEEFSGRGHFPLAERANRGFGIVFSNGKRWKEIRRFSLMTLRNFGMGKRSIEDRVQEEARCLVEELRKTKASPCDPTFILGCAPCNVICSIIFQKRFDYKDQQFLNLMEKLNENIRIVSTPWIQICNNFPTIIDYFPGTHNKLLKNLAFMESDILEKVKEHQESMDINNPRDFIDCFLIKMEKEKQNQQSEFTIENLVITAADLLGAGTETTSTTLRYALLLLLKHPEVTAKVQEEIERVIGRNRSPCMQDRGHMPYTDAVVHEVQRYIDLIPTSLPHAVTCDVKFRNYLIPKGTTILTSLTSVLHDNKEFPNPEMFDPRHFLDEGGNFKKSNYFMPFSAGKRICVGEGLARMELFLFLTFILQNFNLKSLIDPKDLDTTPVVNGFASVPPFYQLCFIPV

Structure (SMILES): O=C1c2ccccc2CCc2ccccc21 [Dibenzosuberone]
- AC50 [1]: 33.4 µM
- AC50 [2]: 8.39 µM
- AC50 [3]: 1.58 µM

Structure (SMILES): CCOC(=O)c1ccccc1C(=O)OCC [Diethyl phthalate]
- AC50 [3, 9]: 3.24 µM

Structure (SMILES): C[C@]12CC[C@@H]3c4ccc(O)cc4CC[C@H]3[C@@H]1CC[C@@H]2OC(=O)CCC1CCCC1 [Estradiol cypionate]
- AC50 [1, 10]: 16.1 µM
- AC50 [2, 11]: 26 µM
- AC50 [3, 9]: 16.6 µM

Structure (SMILES): CC(C)OC(=O)C(C)(C)Oc1ccc(C(=O)c2ccc(Cl)cc2)cc1 [Fenofibrate]
- AC50 [1, 10]: 3.17 µM
- AC50 [3, 9]: 19.9 µM

Structure (SMILES): O=C(O)Cc1sc(-c2ccccc2)nc1-c1ccc(Cl)cc1 [Fentiazac]
- AC50 [1, 10]: 6.24 µM
- AC50 [3, 9]: 24 µM

Structure (SMILES): CNCCC(Oc1ccc(C(F)(F)F)cc1)c1ccccc1 (centres unmarked) [Fluoxetine hydrochloride]
- IC50 [1, 12]: 34.2 µM
- IC50 [3, 13]: 20.9 µM

Structure (SMILES): NS(=O)(=O)c1cc2c(cc1Cl)NCNS2(=O)=O [Hydrochlorothiazide]
- CYP2C19 AC50 (half-maximal activity concentration) [4]: Inactive
- CYP3A4 AC50 (half-maximal activity concentration) [5]: Inactive
- CYP2D6 AC50 (half-maximal activity concentration) [6]: Inactive

Structure (SMILES): CC(C)Oc1ccc2c(=O)c(-c3ccccc3)coc2c1 [Ipriflavone]
- AC50 [1, 10]: 20.1 µM
- AC50 [3, 9]: 11.6 µM

Structure (SMILES): Cc1cc2c(cc1S(N)(=O)=O)S(=O)(=O)CCC2 [Meticrane]
- CYP1A2 AC50 (half-maximal activity concentration) [7]: Inactive
- CYP2C19 AC50 (half-maximal activity concentration) [4]: Inactive
- CYP3A4 AC50 (half-maximal activity concentration) [5]: Inactive
- AC50 [1]: 8.15 ± 1.47 µM
- CYP2D6 AC50 (half-maximal activity concentration) [6]: Inactive

Structure (SMILES): CCOc1cc(N)c(Cl)cc1C(=O)NCC1CN(Cc2ccc(F)cc2)CCO1 (centres unmarked) [Mosapride citrate]
- IC50 [2, 14]: 9 µM
- IC50 [3, 13]: 1.14 µM

Structure (SMILES): COc1ccnc2c1CCCCC2[S+]([O-])c1nc2ccccc2[nH]1 (centres unmarked) [Nepaprazole]
- IC50 [1]: 13.9 ± 1.59 µM
- IC50 [2]: 8.96 ± 4.72 µM
- IC50 [3]: 14.9 ± 0.97 µM

Structure (SMILES): O=C(NOCC1CC1)c1ccc(F)c(F)c1Nc1ccc(I)cc1Cl [PD-184352]
- IC50 [1]: 0.68 ± 0.17 µM
- IC50 [2]: 0.39 ± 0.13 µM
- IC50 [3]: 14.4 ± 0.97 µM

Structure (SMILES): CCC(=O)c1ccc(O)cc1 [Paroxypropione]
- CYP1A2 AC50 (half-maximal activity concentration) [7]: Inconclusive inhibitor
- CYP2C19 AC50 (half-maximal activity concentration) [4]: Inactive
- CYP3A4 AC50 (half-maximal activity concentration) [5]: Inactive
- AC50 [1, 10]: 15.6 µM
- CYP2D6 AC50 (half-maximal activity concentration) [6]: Inactive

Structure (SMILES): CCCOC(=O)c1cncn1C(C)c1ccccc1 (centres unmarked) [Propoxate]
- IC50 [1, 12]: 13.3 µM
- IC50 [2, 14]: 3.09 µM
- IC50 [3, 13]: 18.9 µM

Structure (SMILES): Cc1cc(C)nc(NS(=O)(=O)c2ccc(N)cc2)n1 [Sulfamethazine]
- CYP1A2 AC50 (half-maximal activity concentration) [7]: Inconclusive inhibitor
- CYP2C19 AC50 (half-maximal activity concentration) [4]: Inactive
- CYP3A4 AC50 (half-maximal activity concentration) [5]: Inactive
- AC50 [1, 10]: 54.8 µM
- CYP2D6 AC50 (half-maximal activity concentration) [6]: Inactive

Structure (SMILES): O=C1OC(OC(=O)c2cccnc2Nc2cccc(C(F)(F)F)c2)c2ccccc21 (centres unmarked) [Talniflumate]
- AC50 [1]: 5.56 ± 2.56 µM
- AC50 [3]: 10 ± 5.3 µM

Structure (SMILES): CCCCCNC(=N)N/N=C/c1c[nH]c2ccc(OC)cc12 [Tegaserod maleate]
- AC50 [1]: 33.3 ± 14 µM
- AC50 [3]: 4.12 ± 0.93 µM

Structure (SMILES): CN(C)C(=S)SC(=S)N(C)C [Tetramethylthiuram monosulfide]
- AC50 [1, 10]: 24.3 µM
- AC50 [2, 11]: 22.8 µM
- AC50 [3, 9]: 41.9 µM

Structure (SMILES): Cc1c(Cl)cccc1Nc1ccccc1C(=O)O [Tolfenamic acid]
- AC50 [1, 10]: 21 µM
- AC50 [3, 9]: 34.8 µM

Structure (SMILES): Clc1ccc(C(c2ccc(Cl)cc2)C(Cl)(Cl)Cl)cc1 [p,p'-DDT]
- CYP1A2 Efficacy (in parenthesis) ([7]; human): 9.36 ± 3.19 (-74 ± 16) %
- CYP2C9 Efficacy (in parenthesis) [8]: 4.33 ± 1.82 (-100 ± 9) %
- CYP2C19 Efficacy (in parenthesis) ([4]; human): 0.04 ± 0.02 (-132 ± 4) %
- IC50 [1, 12]: 4.33 µM
- IC50 [2, 14]: 0.04 µM
- IC50 [3, 13]: 9.36 µM

Structure (SMILES): Fc1ccc([C@@H]2CCNC[C@H]2COc2ccc3c(c2)OCO3)cc1 [paroxetine, reference compound]
- IC50 [3, 13]: 15.2 µM

Structure (SMILES): c1ccc2[nH]c(-c3cscn3)nc2c1 [thiabendazole, reference compound]
- IC50 ([3]; IC50 CYP1A2 assay): 2.1 µM

Structure (SMILES): CC(c1cc2ccccc2s1)N(O)C(N)=O (centres unmarked) [zileuton, reference compound]
- IC50 [3]: 5.3 µM
